Patent US20260015350A1, “AZAQUINAZOLINE PAN-KRAS INHIBITORS” (Mirati Therapeutics, Inc., priority 2022, published 2026)

How the values were obtained:
[1] = tested on: KRas-mediated phosphorylation of ERK in H727 cells; assay: Inhibition of KRas-mediated phosphorylation of ERK (Cisbio HTRF pERK), H727 cells; format: cell-based; conditions: Homo sapiens, NCI-H727, H727 cells; HTRF pERK
In short: (§1)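 Each compound was tested at 10 concentrations, threefold apart with 10 uM the highest, for 3 hrs on 6,000 seeded cells; final DMSO was 0.8% and Trametinib (0.2 uM) served as Min control. Lysed cells were analysed for pERK by HTRF.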

[2] = tested on: KRas-mediated phosphorylation of ERK in AsPC-1 cells; assay: Inhibition of KRas-mediated phosphorylation of ERK (Cisbio HTRF pERK), AsPC-1 cells; format: cell-based; conditions: Homo sapiens, ASPC1, AsPC-1 cells; HTRF pERK
In short: as §1

[3] = tested on: KRas-mediated phosphorylation of ERK in H358 cells; assay: Inhibition of KRas-mediated phosphorylation of ERK (Cisbio HTRF pERK), H358 cells; format: cell-based; conditions: Homo sapiens, NCI-H358, HTRF pERK
In short: as §1

[4] = tested on: KRas-mediated phosphorylation of ERK in PSN1 cells; assay: Inhibition of KRas-mediated phosphorylation of ERK (Cisbio HTRF pERK), PSN1 cells; format: cell-based; conditions: Homo sapiens
In short: (§2)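 HTRF pERK read-out; 6,000 cells/well, RPMI_10% FBS, overnight 37° C./5% CO2; 4 h covered incubation at RT before reading.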

KRas^G12V = biological target: T1, KRas^G12V (Homo sapiens, UniProt P01116, G12V); assay: KRas binding assay (TR-FRET tracer displacement), KRas G12V
T1 construct: Biotinylated KRas (corresponding to amino acids 1-169, produced at Accelegan Inc.); biotin (biotinylated); purchased Accelegan Inc
T1 sequence (P01116 1-169 isoform P01116-2 G12V): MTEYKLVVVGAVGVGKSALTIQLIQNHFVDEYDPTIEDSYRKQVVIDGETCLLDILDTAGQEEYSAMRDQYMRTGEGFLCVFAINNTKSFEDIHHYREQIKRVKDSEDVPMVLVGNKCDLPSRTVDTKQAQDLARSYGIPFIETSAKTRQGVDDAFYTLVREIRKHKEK

KRas^G12D = biological target: T2, KRas^G12D (Homo sapiens, UniProt P01116, G12D); assay: KRas binding assay (TR-FRET tracer displacement), KRas G12D
T2 construct: Biotinylated KRas (corresponding to amino acids 1-169, produced at Accelegan Inc.); biotin (biotinylated); purchased Accelegan Inc
T2 sequence (P01116 1-169 isoform P01116-2 G12D): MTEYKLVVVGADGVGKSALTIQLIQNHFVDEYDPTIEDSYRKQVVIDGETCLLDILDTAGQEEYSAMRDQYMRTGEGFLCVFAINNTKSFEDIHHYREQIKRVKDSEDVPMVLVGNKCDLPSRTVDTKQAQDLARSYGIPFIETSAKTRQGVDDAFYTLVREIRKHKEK

[5] = tested on: KRas-mediated phosphorylation of ERK in H460 cells; assay: Inhibition of KRas-mediated phosphorylation of ERK (Cisbio HTRF pERK), H460 cells; format: cell-based; conditions: Homo sapiens, NCI-H460, HTRF pERK
In short: as §1

[6] = tested on: KRas-mediated phosphorylation of ERK in A549 cells; assay: Inhibition of KRas-mediated phosphorylation of ERK (Cisbio HTRF pERK), A549 cells; format: cell-based; conditions: Homo sapiens, HTRF pERK
In short: (§3)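 Signal read by HTRF (d2/Cryptate antibody pair, 2 hr room-temperature incubation on lysate). Cells: 6,000 per well, 3 hr compound exposure. Titration: 10 uM highest, 3-fold, 10 points.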

[7] = tested on: KRas-mediated phosphorylation of ERK in HCT116 cells; assay: Inhibition of KRas-mediated phosphorylation of ERK (Cisbio HTRF pERK), HCT116 cells; format: cell-based; conditions: Homo sapiens, HCT-116, HTRF pERK
In short: as §3

KRas^G12R = biological target: T3, KRas^G12R (Homo sapiens, UniProt P01116, G12R); assay: KRas binding assay (TR-FRET tracer displacement), KRas G12R
T3 construct: Biotinylated KRas (corresponding to amino acids 1-169, produced at Accelegan Inc.); biotin (biotinylated); purchased Accelegan Inc
T3 sequence (P01116 1-169 isoform P01116-2 G12R): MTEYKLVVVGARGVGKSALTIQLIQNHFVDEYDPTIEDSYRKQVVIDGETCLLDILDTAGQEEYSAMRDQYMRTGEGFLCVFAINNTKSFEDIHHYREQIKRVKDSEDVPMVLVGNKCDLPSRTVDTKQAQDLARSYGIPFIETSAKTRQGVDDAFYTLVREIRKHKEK

[8] = tested on: KRas-mediated phosphorylation of ERK in MKN1 cells; assay: Inhibition of KRas-mediated phosphorylation of ERK (Cisbio HTRF pERK), MKN1 cells; format: cell-based; conditions: Homo sapiens, MKN-1
In short: as §2

Row | IC50 [1] [nM] | IC50 [2] [nM] | IC50 [3] [nM] | IC50 [4] [nM] | IC50 (KRas^G12V) [nM] | IC50 (KRas^G12D) [nM] | IC50 [5] [nM] | IC50 [6] [nM] | IC50 [7] [nM] | IC50 (KRas^G12R) [nM] | IC50 [8] [nM] | SMILES
1 | 4000 | > 10000 | 1360 | > 10000 | 32 | 145 | 1990 | > 10000 | 3890 | 34 | 208 | CCc1c(F)ccc2cc(O)cc(-c3ncc4c(N5CC6CCC(C5)C6CC(=O)NC)nc(OC[C@@]56CCCN5C[C@H](F)C6)nc4c3F)c12 (stereo partly drawn) [Example 863, 2-((1R,5S,8S)-3-(7-(8-ethyl-7-fluoro-3-hydroxynaphthalen-1-yl)-8-fluoro-2-(((2R,7aS)-2-fluorotetrahydro-1H-pyrrolizin-7a(5H)-yl)methoxy)pyrido[4,3-d]pyrimidin-4-yl)-3-azabicyclo[3.2.1]octan-8-yl)-N-methylacetamide]
2 | 24 | 17 | 12 | 3420 | < 2 | < 2 | 22 | 61 | 53 | < 2 | 21 | Oc1cc(-c2ncc3c(N4CCOCC5(CCO5)C4)nc(OC[C@@]45CCCN4C[C@H](F)C5)nc3c2F)c2c(Cl)c(F)ccc2c1 (stereo partly drawn) [Example 868, 5-chloro-6-fluoro-4-(8-fluoro-2-(((2R,7aS)-2-fluorotetrahydro-1H-pyrrolizin-7a(5H)-yl)methoxy)-4-(1,6-dioxa-9-azaspiro[3.6]decan-9-yl)pyrido[4,3-d]pyrimidin-7-yl)naphthalen-2-ol]
3 | 4520 | 3600 | 922 | > 10000 | 116 | 210 | 271 | 2760 | 1200 | 26 | 290 | CCc1c(F)ccc2cc(O)cc(-c3ncc4c(N5CC6CCC(C5)C6(F)F)nc(OC[C@@]56CCCN5C[C@H](F)C6)nc4c3F)c12 [Example 869, 4-(4-(8,8-difluoro-3-azabicyclo[3.2.1]octan-3-yl)-8-fluoro-2-(((2R,7aS)-2-fluorotetrahydro-1H-pyrrolizin-7a(5H)-yl)methoxy)pyrido[4,3-d]pyrimidin-7-yl)-5-ethyl-6-fluoronaphthalen-2-ol]
4 | 98 | 51 | 10 | 1300 | < 2 | < 2 | 25 | 66 | 49 | < 2 | 18 | CCc1c(F)ccc2cc(O)cc(-c3ncc4c(N5CCC[C@@](C)(O)C5)nc(OC[C@@]56CCCN5[C@H](COCC5CC5)CC6)nc4c3F)c12 [Example 870, (R)-1-(2-(((3S,7aS)-3-((cyclopropylmethoxy)methyl)tetrahydro-1H-pyrrolizin-7a(5H)-yl)methoxy)-7-(8-ethyl-7-fluoro-3-hydroxynaphthalen-1-yl)-8-fluoropyrido[4,3-d]pyrimidin-4-yl)-3-methylpiperidin-3-ol]
5 | 408 | 93 | 149 | > 10000 | 7 | 7 | 194 | 135 | 325 | 12 | 198 | CCCCN(CCCC)C(=O)OC[C@@H]1CC[C@@]2(COc3nc(N4CCC[C@@](C)(O)C4)c4cnc(-c5cc(O)cc6ccc(F)c(CC)c56)c(F)c4n3)CCCN12 [Example 873, ((3S,7aR)-7a-(((7-(8-ethyl-7-fluoro-3-hydroxynaphthalen-1-yl)-8-fluoro-4-((R)-3-hydroxy-3-methylpiperidin-1-yl)pyrido[4,3-d]pyrimidin-2-yl)oxy)methyl)hexahydro-1H-pyrrolizin-3-yl)methyl dibutylcarbamate]
6 | 81 | 12 | 16 | 2070 | 2 | < 2 | 21 | 22 | 48 | 3 | 22 | CCCCN(C)C(=O)OC[C@@H]1CC[C@@]2(COc3nc(N4CCC[C@@](C)(O)C4)c4cnc(-c5cc(O)cc6ccc(F)c(CC)c56)c(F)c4n3)CCCN12 [Example 874, ((3S,7aR)-7a-(((7-(8-ethyl-7-fluoro-3-hydroxynaphthalen-1-yl)-8-fluoro-4-((R)-3-hydroxy-3-methylpiperidin-1-yl)pyrido[4,3-d]pyrimidin-2-yl)oxy)methyl)hexahydro-1H-pyrrolizin-3-yl)methyl butyl(methyl)carbamate]
7 | 189 | 79 | 40 | 2150 | 3 | 3 | 86 | 92 | 176 | 5 | 104 | CCc1c(F)ccc2cc(O)cc(-c3ncc4c(N5CCC[C@@](C)(O)C5)nc(OC[C@]56CCCN5[C@@H](COC)CC6)nc4c3F)c12 [Example 877, (R)-1-(7-(8-ethyl-7-fluoro-3-hydroxynaphthalen-1-yl)-8-fluoro-2-(((3R,7aR)-3-(methoxymethyl)tetrahydro-1H-pyrrolizin-7a(5H)-yl)methoxy)pyrido[4,3-d]pyrimidin-4-yl)-3-methylpiperidin-3-ol]
8 | 83 | 43 | 52 | 4000 | 3 | 3 | 53 | 125 | 186 | 6 | 16 | CCc1c(F)ccc2cc(O)cc(-c3ncc4c(N5CCC[C@@](C)(O)C5)nc(OC[C@@]56CCCN5[C@@H](CF)CC6)nc4c3F)c12 [Example 878, (R)-1-(7-(8-ethyl-7-fluoro-3-hydroxynaphthalen-1-yl)-8-fluoro-2-(((3R,7aS)-3-(fluoromethyl)tetrahydro-1H-pyrrolizin-7a(5H)-yl)methoxy)pyrido[4,3-d]pyrimidin-4-yl)-3-methylpiperidin-3-ol]
9 | 35 | 12 | 14 | 889 | < 2 | 2 | 25 | 30 | 65 | 3 | 1 | CCc1c(F)ccc2cc(O)cc(-c3ncc4c(N5CCC[C@@](C)(O)C5)nc(OC[C@]56CCCN5[C@H](CF)CC6)nc4c3F)c12 [Example 879, (R)-1-(7-(8-ethyl-7-fluoro-3-hydroxynaphthalen-1-yl)-8-fluoro-2-(((3S,7aR)-3-(fluoromethyl)tetrahydro-1H-pyrrolizin-7a(5H)-yl)methoxy)pyrido[4,3-d]pyrimidin-4-yl)-3-methylpiperidin-3-ol]
10 | 252 | 1170 | 95 | > 10000 | 7 | 53 | 211 | 822 | 772 | 12 | 94 | CCc1c(F)ccc2cc(O)cc(-c3ncc4c(N5CC6CCC(C5)C65OCCO5)nc(OC[C@@]56CCCN5C[C@H](F)C6)nc4c3F)c12 [Example 883, 5-ethyl-6-fluoro-4-(8-fluoro-2-(((2R,7aS)-2-fluorotetrahydro-1H-pyrrolizin-7a(5H)-yl)methoxy)-4-(3-azaspiro[bicyclo[3.2.1]octane-8,2′-[1,3]dioxolan]-3-yl)pyrido[4,3-d]pyrimidin-7-yl)naphthalen-2-ol]
11 | 39 | 14 | 7 | 1320 | < 2 | < 2 | 8 | 30 | 16 | < 2 | 5 | CCc1c(F)ccc2cc(O)cc(-c3ncc4c(N5CCC[C@@](C)(O)C5)nc(OC[C@]56CCCN5[C@H](COC)CC6)nc4c3F)c12 [Example 885, (R)-1-(7-(8-ethyl-7-fluoro-3-hydroxynaphthalen-1-yl)-8-fluoro-2-(((3S,7aR)-3-(methoxymethyl)tetrahydro-1H-pyrrolizin-7a(5H)-yl)methoxy)pyrido[4,3-d]pyrimidin-4-yl)-3-methylpiperidin-3-ol]
